From patent US10913736B2 (UNIVERSITY OF WASHINGTON, priority 2014, dated 2021)
Where “and” joins values, the source holds several entries; their conditions need not be identical. Equal values may be shown once. Read-outs that look alike come from different tables or passages of the source.

Columns and labels:
MetRS (T. brucei) = MetRS (T. brucei) (Trypanosoma brucei brucei, UniProt Q38C91); experiment: MetRS (T. brucei) ATP depletion assay using Kinase-Glo; format: biochemical
MetRS (S. aureus) = MetRS (S. aureus) (Staphylococcus aureus, UniProt Q5HII6); experiment: biochemical; details: ATP depletion, Kinase-Glo; read-out: H) MetRS (S. aureus) ATP depletion assay using Kinase-Glo with modified cpd dilution method, IC50
Chain of MetRS (S. aureus) (Q5HII6 whole entry): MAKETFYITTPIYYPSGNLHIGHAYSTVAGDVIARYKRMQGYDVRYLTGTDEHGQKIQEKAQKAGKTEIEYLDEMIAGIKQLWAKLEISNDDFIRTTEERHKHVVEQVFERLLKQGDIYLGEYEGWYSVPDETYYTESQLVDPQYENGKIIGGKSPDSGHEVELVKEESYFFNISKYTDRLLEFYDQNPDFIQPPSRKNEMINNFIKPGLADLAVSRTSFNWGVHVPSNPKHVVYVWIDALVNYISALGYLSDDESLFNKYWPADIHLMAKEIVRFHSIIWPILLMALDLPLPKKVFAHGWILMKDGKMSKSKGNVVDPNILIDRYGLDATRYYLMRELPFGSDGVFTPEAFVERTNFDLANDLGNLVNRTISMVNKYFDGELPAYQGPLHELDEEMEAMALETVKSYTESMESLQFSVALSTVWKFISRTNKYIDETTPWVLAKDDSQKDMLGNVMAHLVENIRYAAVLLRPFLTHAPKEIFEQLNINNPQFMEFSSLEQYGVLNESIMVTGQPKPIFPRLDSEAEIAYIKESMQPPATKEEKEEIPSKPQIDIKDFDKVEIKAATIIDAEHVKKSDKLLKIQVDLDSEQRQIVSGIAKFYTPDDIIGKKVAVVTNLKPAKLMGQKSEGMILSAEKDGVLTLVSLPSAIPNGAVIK

T. brucei = experiment: Growth inhibition assay of T. brucei cell cultures (Alamar Blue, 48 h); format: cell-based
[1] = Trypanosoma brucei; read-out: B) T. brucei EC50

Chain of MetRS (T. brucei) (Q38C91 entry or part of it): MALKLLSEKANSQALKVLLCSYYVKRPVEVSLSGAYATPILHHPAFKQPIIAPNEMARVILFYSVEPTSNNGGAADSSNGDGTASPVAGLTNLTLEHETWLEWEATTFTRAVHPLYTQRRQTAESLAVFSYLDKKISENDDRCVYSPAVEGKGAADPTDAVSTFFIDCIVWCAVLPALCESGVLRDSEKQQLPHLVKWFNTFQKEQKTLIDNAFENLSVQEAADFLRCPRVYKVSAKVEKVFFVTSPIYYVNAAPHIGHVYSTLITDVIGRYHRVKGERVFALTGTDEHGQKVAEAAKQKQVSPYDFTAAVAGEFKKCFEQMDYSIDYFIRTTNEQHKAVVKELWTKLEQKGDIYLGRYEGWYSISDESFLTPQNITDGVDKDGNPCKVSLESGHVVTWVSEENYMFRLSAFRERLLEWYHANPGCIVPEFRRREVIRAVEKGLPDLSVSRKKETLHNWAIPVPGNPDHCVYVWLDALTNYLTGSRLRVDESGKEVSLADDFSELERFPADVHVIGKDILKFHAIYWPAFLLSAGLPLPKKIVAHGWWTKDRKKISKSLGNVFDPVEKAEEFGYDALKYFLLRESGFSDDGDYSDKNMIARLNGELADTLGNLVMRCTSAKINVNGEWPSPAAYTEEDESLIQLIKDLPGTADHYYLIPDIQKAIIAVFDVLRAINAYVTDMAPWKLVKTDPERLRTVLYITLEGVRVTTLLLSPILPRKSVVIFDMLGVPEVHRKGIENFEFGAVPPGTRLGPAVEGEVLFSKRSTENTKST

| SMILES | IC50 (MetRS (T. brucei)) | IC50 (MetRS (S. aureus)) [nM] | EC50 (T. brucei; [1]) [nM] | EC50 (T. brucei; read-out: B) T. brucei EC50) [nM] |
| --- | --- | --- | --- | --- |
| COc1ccc(Oc2cc(NCc3nc4ccccc4[nH]3)ccn2)c(Cl)c1 [Compound 1950, N-(1H-1,3-benzodiazol-2-ylmethyl)-2-(2-chloro-4-methoxyphenoxy)pyridin-4-amine] | 50 nM | 797 |  |  |
| COc1ccc(Oc2ccnc(NCc3nc4ccc(F)nc4[nH]3)c2)c(Cl)c1 [Compound 1960, 4-(2-chloro-4-methoxyphenoxy)-N-({5-fluoro-3H-imidazo[4,5-b]pyridin-2-yl}methyl)pyridin-2-amine] | 21 nM | 12 |  |  |
| Clc1ccc(CNC2CCCN(c3nc4nc(Cl)ccc4[nH]3)C2)c(Cl)c1 (stereo not drawn) [Compound 1857, 1-(5-chloro-1H-imidazo[4,5-b]pyridin-2-yl)-N-(2,4-dichlorobenzyl) piperidin-3-amine] | 72 nM |  | 1480 |  |
| COc1c(Br)cc(Br)cc1CN[C@H]1CCCN(c2nc3nc(Cl)ccc3[nH]2)C1 [Compound 1909, (S)-1-(5-chloro-1H-imidazo[4,5-b]pyridin-2-yl)-N-(3,5-dibromo-2-methoxybenzyl)piperidin-3-amine] | 20 nM |  | 334 |  |
| O=C(Cc1cc(Cl)cc(Cl)c1)N1CCCC(c2nc3c(Cl)cccc3[nH]2)C1 (stereo not drawn) [Compound 1733, 1-(3-(4-chloro-1H-benzo[d]imidazol-2-yl)piperidin-1-yl)-2-(3,5-dichlorophenyl) ethanone] | 926 nM |  | 8810 |  |
| CC(C)(CNCc1cc(Cl)cc(Cl)c1)CNc1nc2cccnc2[nH]1 [Compound 1641, N1-(3,5-dichlorobenzyl)-N3-(1H-imidazo[4,5-b]pyridin-2-yl)-2,2-dimethylpropane-1,3-diamine] | < 49 nM and 138 nM |  | 7650 | 8350 |
| O=C(Cc1cc(Cl)cc(Cl)c1)N1CCCC(c2nc3cc(Cl)c(F)cc3[nH]2)C1 (stereo not drawn) [Compound 1746, 1-(3-(5-chloro-6-fluoro-1H-benzo[d]imidazol-2-yl)piperidin-1-yl)-2-(3,5-dichlorophenyl)ethanone] | 138 nM |  | 3330 |  |
| O=C(CCOc1ccc(Cl)cc1Cl)NC1(c2nc3ccccc3[nH]2)CC1 [Compound 1738, N-(1-(1H-benzo[d]imidazol-2-yl)cyclopropyl)-3-(2,4-dichlorophenoxy)propanamide] | > 10000 nM |  | > 20000 |  |
| O=C(CCOc1ccc(Cl)cc1Cl)NCc1nc2ccc(F)cc2[nH]1 [Compound 1740, 3-(2,4-dichlorophenoxy)-N-((6-fluoro-1H-benzo[d]imidazol-2-yl)methyl)propanamide] | 549 nM |  | > 10000 |  |
| Clc1cc(Cl)cc(CNC2CCCC(c3nc4cc(Cl)ccc4[nH]3)C2)c1 (stereo not drawn) [Compound 1840, 3-(5-chloro-1H-benzo[d]imidazol-2-yl)-N-(3,5-dichlorobenzyl) cyclohexanamine] | 580 nM |  | 1950 |  |
| Clc1cc(Cl)cc(CNC2CN(c3nc4nc(Cl)c(Br)cc4[nH]3)C2)c1 [Compound 1865, 1-{6-bromo-5-chloro-1H-imidazo[4,5-b]pyridin-2-yl}-N-[(3,5-dichlorophenyl)methyl]azetidin-3-amine] | > 10000 nM |  | 6630 |  |
| C[C@H](Cc1nc2ccc(Cl)cc2[nH]1)NCc1cc(Cl)cc(Cl)c1 [Compound 1806, [(2R)-1-(6-chloro-1H-1,3-benzodiazol-2-yl)propan-2-yl][(3,5-dichlorophenyl)methyl]amine] | 7630 nM and 9880 nM |  | 3330 |  |
| O=C(Nc1cccc(-c2nc3ccc(Cl)cc3[nH]2)c1)c1cc(Cl)cc(Cl)c1 [Compound 1953, 3,5-dichloro-N-[3-(6-chloro-1H-1,3-benzodiazol-2-yl)phenyl]benzamide] | > 10000 nM |  | 903 | 812 |
| CC(Cc1nc2ccc(C(F)(F)F)cc2[nH]1)NCc1cc(Cl)cc(Cl)c1 (stereo not drawn) [Compound 1825, [(3,5-dichlorophenyl)methyl]({1-[6-(trifluoromethyl)-1H-1,3-benzodiazol-2-yl]propan-2-yl})amine] | 1560 nM |  | 3650 |  |
| CCCOc1c(Cl)cc(Cl)cc1CN[C@H]1CCCN(c2nc3nc(Cl)ccc3[nH]2)C1 [Compound 1927, (S)-1-(5-chloro-1H-imidazo[4,5-b]pyridin-2-yl)-N-(3,5-dichloro-2-propoxybenzyl)piperidin-3-amine] | 47 nM |  | 827 |  |
| O=C(Cc1cc(Cl)cc(Cl)c1)N1CCC[C@@H](c2nc3cc(Cl)ccc3[nH]2)C1 [Compound 1757, (R)-1-(3-(5-chloro-1H-benzo[d]imidazol-2-yl)piperidin-1-yl)-2-(3,5-dichlorophenyl)ethanone] | 3500 nM |  | > 10000 |  |
| Clc1cc(Cl)cc(NCCNCc2nc3ccc(Cl)nc3[nH]2)c1 [Compound 1994, ({5-chloro-3H-imidazo[4,5-b]pyridin-2-yl}methyl)({2-[(3,5-dichlorophenyl)amino]ethyl})amine] | 59 nM |  | 1410 |  |
| Clc1cc(Cl)cc(CNCCSc2nc3nc(Cl)ccc3[nH]2)c1 [Compound 1896, [2-({5-chloro-1H-imidazo[4,5-b]pyridin-2-yl}sulfanyl)ethyl][(3,5-dichlorophenyl)methyl]amine] | 1050 nM |  | 1400 |  |

| SMILES | IC50 (MetRS (T. brucei)) | IC50 (MetRS (S. aureus)) [nM] | EC50 (T. brucei; [1]) [nM] | EC50 (T. brucei; read-out: B) T. brucei EC50) [nM] |
| --- | --- | --- | --- | --- |
| COc1ccc(Oc2cccc(NCc3nc4ccccc4[nH]3)n2)c(Cl)c1 [Compound 1924, N-((1H-benzo[d]imidazol-2-yl)methyl)-6-(2-chloro-4-methoxyphenoxy)pyridin-2-amine] | 165 nM |  | 3280 |  |
| O=C(CNc1cc(Cl)cc(Cl)c1)NCc1nc2ccc(Cl)nc2[nH]1 [Compound 1990, N-({5-chloro-3H-imidazo[4,5-b]pyridin-2-yl}methyl)-2-[(3,5-dichlorophenyl)amino]acetamide] | 17 nM |  | 2040 |  |
| CC(=O)N(Cc1cc(Cl)cc(Cl)c1)C1CCCC(c2nc3ncccc3[nH]2)C1 (stereo not drawn) [Compound 1818, N-(3-(1H-imidazo[4,5-b]pyridin-2-yl)cyclohexyl)-N-(3,5-dichlorobenzyl) acetamide] | 7950 nM |  | > 20000 |  |
| Clc1cc(Cl)c(OC2CC2)c(CN[C@H]2CCCN(c3nc4nc(Cl)ccc4[nH]3)C2)c1 [Compound 1930, (S)-1-(5-chloro-1H-imidazo[4,5-b]pyridin-2-yl)-N-(3,5-dichloro-2-cyclopropoxybenzyl)piperidin-3-amine] | 389 nM |  | 3120 |  |
| Fc1ccc2[nH]c(C3CCCN(CCc4cc(Cl)cc(Cl)c4)C3)nc2n1 (stereo not drawn) [Compound 1798, 5-fluoro-2-(1-(3,5-dichlorophenethyl)piperidin-3-yl)-1H-imidazo[4,5-b]pyridine] | > 10000 nM |  | 1230 |  |
| O=C(NCc1nc2ccccc2[nH]1)C(=O)NCc1ccc(Cl)cc1Cl [Compound 1802, N1-((1H-benzo[d]imidazol-2-yl)methyl)-N2-(2,4-dichlorobenzyl)oxalamide] | 4290 nM |  | > 20000 |  |
| Clc1cc(Cl)cc(CN2CCC[C@H](c3nc4nc(Cl)ccc4[nH]3)C2)c1 [Compound 1868, (S)-5-chloro-2-(1-(3,5-dichlorobenzyl)piperidin-3-yl)-1H-imidazo[4,5-b]pyridine] | 77 nM |  | 1080 |  |
| O=C(CCOc1ccc(Cl)cc1Cl)NCc1nc2cccnc2[nH]1 [Compound 1704, 3-(2,4-dichlorophenoxy)-N-{3H-imidazo[4,5-b]pyridin-2-ylmethyl}propanamide] | 280 nM |  | 8610 |  |
| Clc1cc(Cl)cc(CNC2CCCC(c3nc4ncccc4[nH]3)C2)c1 (stereo not drawn) [Compound 1817, N-(3,5-dichlorobenzyl)-3-(1H-imidazo[4,5-b]pyridin-2-yl) cyclohexanamine] | > 10000 nM |  | 2060 |  |
| CC(Cc1nc2cc(Cl)c(Cl)cc2[nH]1)NCc1cc(Cl)cc(Cl)c1 (stereo not drawn) [Compound 1822, [1-(5,6-dichloro-1H-1,3-benzodiazol-2-yl)propan-2-yl][(3,5-dichlorophenyl)methyl]amine] | 1490 nM |  | 3570 |  |
| O=C(NCc1nc2nc(Cl)ccc2[nH]1)Nc1ccc(Cl)cc1Cl [Compound 1891, 3-({5-chloro-3H-imidazo[4,5-b]pyridin-2-yl}methyl)-1-(2,4-dichlorophenyl)urea] | 3900 nM |  | > 20000 |  |
| O=C(NCc1cc(Cl)cc(Cl)c1)N1CCCC(c2nc3nc(Cl)ccc3[nH]2)C1 (stereo not drawn) [Compound 1785, 3-(5-chloro-1H-imidazo[4,5-b]pyridin-2-yl)-N-(3,5-dichlorobenzyl) piperidine-1-carboxamide] | > 10000 nM |  | > 20000 |  |
| O=C(Cc1ccc(Cl)cc1Cl)NCc1nc2ccc(Cl)nc2[nH]1 [Compound 1876, N-({5-chloro-3H-imidazo[4,5-b]pyridin-2-yl}methyl)-2-(2,4-dichlorophenyl)acetamide] | 375 nM |  | > 20000 |  |
| N[C@H](CC(=O)NCc1nc2ccccc2[nH]1)Cc1ccc(Cl)cc1Cl [Compound 1726, (3S)-3-amino-N-(1H-1,3-benzodiazol-2-ylmethyl)-4-(2,4-dichlorophenyl)butanamide] | 2380 nM |  | 8020 |  |
| CN(Cc1nc2ccccc2[nH]1)C(=O)OCCc1ccc(Cl)cc1Cl [Compound 1728, 2-(2,4-dichlorophenyl)ethyl N-(1H-1,3-benzodiazol-2-ylmethyl)-N-methylcarbamate] | > 10000 nM |  | > 20000 |  |
| C=CCOc1c(Cl)cc(Cl)cc1CN[C@H]1CCCN(c2nc3nc(Cl)ccc3[nH]2)C1 [Compound 1928, (S)—N-(2-(allyloxy)-3,5-dichlorobenzyl)-1-(5-chloro-1H-imidazo[4,5-b]pyridin-2-yl)piperidin-3-amine] | 21 nM |  | 326 |  |
| CC(=O)N(Cc1ccc(Cl)cc1Cl)C1CCCC(c2nc3nc(F)ccc3[nH]2)C1 (stereo not drawn) [Compound 1836, N-(2,4-dichlorobenzyl)-N-(3-(5-fluoro-1H-imidazo[4,5-b]pyridin-2-yl)cyclohexyl)acetamide] | 1430 nM |  | 7630 |  |
